Results: PMC6158189, “A pharmacological probe identifies cystathionine β-synthase as a new negative regulator for ferroptosis” (Cell Death & Disease, 2018)

Assays:
[1] = molecular target: T1, human dopa decarboxylase (hDDC) (Homo sapiens, UniProt P20711); assay: purified hDDC enzyme assay; type: biochemical
T1 construct: made in house
Method: The IC50 values of CH004 for hCBS-413, hCBS-413 mutants, hCBS-FL, hCSE or hDDC were determined according to the standard assay conditions otherwise indicated.

[2] = molecular target: T2, endogenous hCBS in HepG2 cells (Homo sapiens, UniProt P35520); assay: endogenous H2S in HepG2 cells (AzMC probe); type: cell-based; settings: for decrease in H2S: HepG2
T2 construct: effects of CH004 on the activity of endogenous CBS by incubating with HepG2; endogenous in cells; host or cells: HepG2
T2 sequence (P35520 1-551): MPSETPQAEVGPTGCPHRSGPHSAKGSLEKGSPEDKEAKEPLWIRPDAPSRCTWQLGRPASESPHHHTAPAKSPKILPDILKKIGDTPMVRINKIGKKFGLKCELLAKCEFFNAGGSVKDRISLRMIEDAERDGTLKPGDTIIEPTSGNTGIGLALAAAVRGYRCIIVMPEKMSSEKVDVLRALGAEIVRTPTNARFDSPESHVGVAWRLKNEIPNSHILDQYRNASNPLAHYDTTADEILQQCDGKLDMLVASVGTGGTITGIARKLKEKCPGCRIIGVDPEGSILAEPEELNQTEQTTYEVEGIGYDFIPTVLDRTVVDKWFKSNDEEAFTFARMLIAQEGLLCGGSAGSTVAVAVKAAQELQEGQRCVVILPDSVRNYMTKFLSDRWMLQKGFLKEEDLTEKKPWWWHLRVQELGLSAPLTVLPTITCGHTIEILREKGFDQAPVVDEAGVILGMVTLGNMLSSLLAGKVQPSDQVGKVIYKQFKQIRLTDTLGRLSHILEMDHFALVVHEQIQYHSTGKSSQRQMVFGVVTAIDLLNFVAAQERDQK
Method: Fig. 3 The effect of CH004 on the activity of endogenous hCBS in cells. a CH004 dose-dependently elevates the levels of Hcys in HepG2 and HEK293T cells. HepG2 cells or HEK293T cells were incubated with indicated CH004 or DMSO (control) for 12 h. The amount of total Hcys in cells was measured by ELISA using Axis® Homocysteine EIA kit (IBL, AX51301) (“Materials and Methods” section). […] HepG2 cells were treated with indicated DMSO, CH004 or HA for 8 h before the staining with AzMC probe. The amount of the H2S (blue) was quantified and is shown in (c). Bars, 50 μm. Control (CTR), DMSO group (100%). A representative fluorescence image from three independent experiments is shown. Means ± SDS (n = 3). d CH004 elevates Hcys in the peripheral blood of rats. The total Hcys of the blood samples collected from the anesthetized rats at the 75 min time point (Materials and Methods) were quantified by ELISA (see above). Means ± SDS (n = 6).
H2S levels in living cells were detected using a H2S-specific fluorescent probe according to a protocol described previously[31],[55]. To measure H2S in transiently transfected HEK293T cells, the cells were seeded on poly-D-Lys-coated coverslips (Thermo Scientific, Waltham, MA, USA) in 12-well plates at a density of ~ 1 × 10^5 cells per well, and hCBS or hCSE plasmids were transiently transfected by X-tremeGENE HP DNA Transfection Reagent according to the manufacturer’s protocol (Roche, Basel, Switzerland). After 24 h, the transfected cells were treated with DMSO or inhibitors for another 8 h, followed by staining with 7-azide-4-methylcoumarin (AzMC; Sigma-Aldrich). Similarly, HEK293T cells stably expressing CBS WT, Q222A mutant or EV were seeded on poly-D-Lys-coated coverslips in 12-well plates for one day before treatment with DMSO or inhibitors for 8 h. After incubation with 50 μM AzMC at 37 °C for 30 min, the cells were washed 4 times with PBS, and the fluorescent images were recorded with excitation by 405 nm laser by using a A1Si (Nikon) confocal microscope. The intensity of the blue fluorescent signals, indicating the amount of H2S, was quantified by ImageJ software (NIH, Bethesda, ML). The H2S signal was then corrected for the background signal detected in HEK293T cells transiently or stably expressing of empty vector (HEK293T-EV) and normalized by the corresponding cell-occupying area and compared with the control (DMSO group, 100%). Similarly, the H2S signal in HepG2 cells was quantified by AzMC staining, corrected for the background signal outside the cells, normalized by the cell area and expressed as percentages of DMSO control (100%).
To elucidate the subcellular localization of H2S, HepG2 cells were seeded on poly-D-Lys-coated coverslips in 12-well plates. After treatment with DMSO or inhibitors for 8 h, cells were sequentially incubated with 200 nM Mito-Tracker® Green and 50 μM AzMC for 30 min at 37 °C in PBS, and then fluorescent images were taken using a confocal microscope.
Figure S9. The effect of AOAA on the level of endogenous H2S in HepG2 cells. […] HepG2 cells were incubated with 0 (DMSO control), 1, 5 or 10 mM AOAA for 8 h before staining with 50 μM AzMC. Upper panels, the overlaid images; middle panels, the corresponding fluorescent images (blue, H2S); the lower panels, the bright-field images. Bars: 50 μm. (B) Quantification of the mean fluorescent density of H2S (blue). The intensity of H2S was accordingly quantified and normalized by correcting for the background signal outside cells. Data was expressed as percentages of the control (DMSO group, 100%). Means ± SDs (n=3). One-way ANOVA with Bonferroni post-tests was used for the analysis. *, p< 0.05; ***, p< 0.001; n.s. no significance. The images are one representative from three independent experiments.

T1 sequence (P20711 whole entry): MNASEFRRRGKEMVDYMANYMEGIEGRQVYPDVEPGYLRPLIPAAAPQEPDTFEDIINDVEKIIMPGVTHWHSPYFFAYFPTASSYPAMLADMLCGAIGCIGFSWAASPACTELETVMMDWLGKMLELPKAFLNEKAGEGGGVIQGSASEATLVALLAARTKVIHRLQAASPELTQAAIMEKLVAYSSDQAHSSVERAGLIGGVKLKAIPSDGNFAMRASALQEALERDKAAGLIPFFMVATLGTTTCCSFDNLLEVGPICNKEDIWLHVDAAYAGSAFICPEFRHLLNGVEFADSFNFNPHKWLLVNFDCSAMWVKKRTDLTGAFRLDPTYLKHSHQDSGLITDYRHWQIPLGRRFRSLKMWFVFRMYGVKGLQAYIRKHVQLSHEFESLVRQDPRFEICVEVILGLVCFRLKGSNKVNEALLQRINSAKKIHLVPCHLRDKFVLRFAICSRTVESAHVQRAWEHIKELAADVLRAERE

Cn1nc(Cc2ccccc2)nc2c(=O)n(C)c(=O)nc1-2 [CH004, 3-benzyl-1,6-dimethylpyrimido[5,4-e][1,2,4]triazine-5,7(1H,6H)-dione]
Fold selectivity hDDC vs hCBS-413 ([1]; IC50 of hDDC / IC50 of hCBS-413): > 400 (> 400) fold | IC50 ([1]; standard conditions): > 400 µM | decrease in H2S ([2]; 5 μM, 8 h): ~ 50% | decrease in H2S ([2]; 20 μM, 8 h): ~ 90% | mitochondrial H2S ([2]; 8 h, Mito-tracker Green and AzMC): dose-dependently decreases | potency on inhibiting production of H2S in cells compared with AOAA ([2]; CH004 vs AOAA): at least 1000 fold
